Source: PubChem BioAssay AID1963852 (Molecular Pharmacology Branch, DTP, NCI, 2024)
pIC50: −log10 of the molar value.

Tested on: 282377-053-R-J1-PDC complex spheroid viability
Test: Anticancer human tumor 282377-053-R-J1-PDC patient-derived colon adenocarcinoma cell line growth inhibition [POLQ]
Details: for pIC50: curve of first compound; for viability, T/C: stronger effect = lower value; active = viability on the fitted dose curve at most 10% of control; inactive = the rest
How it was run: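 Patient-derived tumour cells were co-cultured with HUVEC and mesenchymal stem cells as multicellular spheroids at 37 °C. They were treated with POLQ inhibitors (novobiocin, ART-558, RP6685) alone or combined with other agents. Top concentrations were at or near clinical Cmax (otherwise 10 microM; SN-38 at 1 microM), decreasing in half-log steps.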

[1] = second compound 0.0316 µM, first compound 0.0316 µM
[2] = second compound 0.0316 µM, first compound 0.1 µM
[3] = second compound 0.0316 µM, first compound 0.316 µM
[4] = second compound 0.0316 µM, first compound 1 µM
[5] = second compound 0.0316 µM, first compound 3.16 µM
[6] = second compound 0.0316 µM, first compound 10 µM
[7] = second compound 0.1 µM, first compound 0.0316 µM
[8] = second compound 0.1 µM, first compound 0.1 µM
[9] = second compound 0.1 µM, first compound 0.316 µM
[10] = second compound 0.1 µM, first compound 1 µM
[11] = second compound 0.1 µM, first compound 3.16 µM
[12] = second compound 0.1 µM, first compound 10 µM
[13] = second compound 0.316 µM, first compound 0.0316 µM
[14] = second compound 0.316 µM, first compound 0.1 µM
[15] = second compound 0.316 µM, first compound 0.316 µM
[16] = second compound 0.316 µM, first compound 1 µM
[17] = second compound 0.316 µM, first compound 3.16 µM
[18] = second compound 0.316 µM, first compound 10 µM
[19] = second compound 1 µM, first compound 0.0316 µM
[20] = second compound 1 µM, first compound 0.1 µM
[21] = second compound 1 µM, first compound 0.316 µM
[22] = second compound 1 µM, first compound 1 µM
[23] = second compound 1 µM, first compound 3.16 µM
[24] = second compound 1 µM, first compound 10 µM
[25] = second compound 3.16 µM, first compound 0.0316 µM
[26] = second compound 3.16 µM, first compound 0.1 µM
[27] = second compound 3.16 µM, first compound 0.316 µM
[28] = second compound 3.16 µM, first compound 1 µM
[29] = second compound 3.16 µM, first compound 3.16 µM
[30] = second compound 3.16 µM, first compound 10 µM
[31] = second compound 10 µM, first compound 0.0316 µM
[32] = second compound 10 µM, first compound 0.1 µM
[33] = second compound 10 µM, first compound 0.316 µM
[34] = second compound 10 µM, first compound 1 µM
[35] = second compound 10 µM, first compound 3.16 µM
[36] = second compound 10 µM, first compound 10 µM
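Also: spheroids exposed to compounds for seven days.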
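For viability, T/C in this document: 100% = DMSO vehicle control viability.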

CCc1cc2c(N3CCc4c(cc(Cn5ccnc5)cc4-c4cn(C)nc4C(F)(F)F)C3=O)cc(C)nc2c(OC)n1 + Nc1ccc(C#CCN(C(=O)Cc2ncc(C(F)(F)F)cc2C(F)(F)F)c2ccc(F)cc2)nn1
< 5.00: pIC50 (second compound 0.0316 µM) | pIC50 (second compound 0.1 µM) | pIC50 (second compound 0.316 µM) | pIC50 (second compound 1 µM) | pIC50 (second compound 3.16 µM) | pIC50 (second compound 10 µM)
inactive: viability, T/C [1] 83% | viability, T/C [2] 81.5% | viability, T/C [3] 89% | viability, T/C [4] 98.2% | viability, T/C [5] 120% | viability, T/C [6] 99.3% | viability, T/C [7] 84.8% | viability, T/C [8] 82.8% | viability, T/C [9] 82.3% | viability, T/C [10] 75.1% | viability, T/C [11] 93.4% | viability, T/C [12] 115% | viability, T/C [13] 96.6% | viability, T/C [14] 86.2% | viability, T/C [15] 89.4% | viability, T/C [16] 82.3% | viability, T/C [17] 95.9% | viability, T/C [18] 96.1% | viability, T/C [19] 82.1% | viability, T/C [20] 88.7% | viability, T/C [21] 79.8% | viability, T/C [22] 96% | viability, T/C [23] 96.7% | viability, T/C [24] 107% | viability, T/C [25] 95.6% | viability, T/C [26] 91.3% | viability, T/C [27] 85% | viability, T/C [28] 106% | viability, T/C [29] 90.5% | viability, T/C [30] 108% | viability, T/C [31] 108% | viability, T/C [32] 102% | viability, T/C [33] 125% | viability, T/C [34] 107% | viability, T/C [35] 113% | viability, T/C [36] 115%

CCc1cc2c(N3CCc4c(cc(Cn5ccnc5)cc4-c4cn(C)nc4C(F)(F)F)C3=O)ccnc2c(OC)n1 + COC1C(OC(N)=O)C(O)C(Oc2ccc3c(O)c(NC(=O)c4ccc(O)c(CC=C(C)C)c4)c(=O)oc3c2C)OC1(C)C
inactive: viability, T/C [1] 114% | viability, T/C [2] 132% | viability, T/C [3] 139% | viability, T/C [4] 144% | viability, T/C [5] 135% | viability, T/C [6] 72.3% | viability, T/C [7] 120% | viability, T/C [8] 153% | viability, T/C [9] 140% | viability, T/C [10] 146% | viability, T/C [11] 118% | viability, T/C [12] 90.6% | viability, T/C [13] 147% | viability, T/C [14] 110% | viability, T/C [15] 132% | viability, T/C [16] 130% | viability, T/C [17] 127% | viability, T/C [18] 78% | viability, T/C [19] 124% | viability, T/C [20] 109% | viability, T/C [21] 123% | viability, T/C [22] 134% | viability, T/C [23] 132% | viability, T/C [24] 95.4% | viability, T/C [25] 124% | viability, T/C [26] 124% | viability, T/C [27] 150% | viability, T/C [28] 145% | viability, T/C [29] 118% | viability, T/C [30] 86.9% | viability, T/C [31] 115% | viability, T/C [32] 127% | viability, T/C [33] 144% | viability, T/C [34] 161% | viability, T/C [35] 113% | viability, T/C [36] 92.9%
< 5.00: pIC50 (second compound 0.0316 µM) | pIC50 (second compound 0.1 µM) | pIC50 (second compound 0.316 µM) | pIC50 (second compound 1 µM) | pIC50 (second compound 3.16 µM) | pIC50 (second compound 10 µM)
